Measurements published in patent publication US20150265621A1, “Treating Bronchiectasis With Doxofylline and Erdosteine” (Alitair Pharmaceuticals, Inc., priority 2014, published 2015).
Like-named read-outs stand apart in the source and are kept apart here.

Columns and labels:
[1] = tested on: bronchiectasis patients with mucus hypersecretion; conditions: Buquan; erdosteine 300 mg BID + PCT up to 15 days; 30 subjects; cited from earlier work
[2] = tested on: bronchiectasis patients with mucus hypersecretion; conditions: Crisafulli; erdosteine 300 mg BID + PCT up to 15 days; 15 subjects; cited from earlier work
[3] = tested on: bronchiectasis patients with mucus hypersecretion; conditions: cited from earlier work
[4] = tested on: bronchiectasis patients with mucus hypersecretion; experiment: Summary (mean, weighted mean) of the three erdosteine bronchiectasis studies; format: in vivo, human; conditions: erdosteine 300 mg BID + PCT
Method: There are three published studies showing effectiveness of erdosteine in the treatment of bronchiectasis: Crisafulli et al (2007), Buquan and Xinke (2011) and Yipin (2012). The three studies have a total of 170 subjects, 85 of whom received standard care consisting of Percussive Chest Therapy (PCT) for up to 15 days. The remaining 85 received PCT plus treatment with erdosteine 300 mg BID for the same length of time. […] FEV1, FVC, PEF, MIP, MEP, PaO2 and PaCO2 measured according to test methods described by Mason et al, 2005. FEV1=forced expiratory volume in one second, measured in liters. FVC=forced vital capacity, total amount air the patient can expel in one breath, measured in liters. PEF=peak expiratory flow, measure in liters per second. MIP=maximum inhalation pressure. MEP=Maximum expiratory pressure. PaO2=partial pressure of oxygen. PaCO2=partial pressure of carbon dioxide. […] Again, the results are similar in terms of order of magnitude and consistent in showing an incremental benefit to adding erdosteine to PCT in bronchiectasis patients. […] The use of erdosteine with PCT produces significant and clinically meaningful changes in the respiratory functioning of patients with bronchiectasis and mucus hypersecretion as compared to PCT alone.

[5] = tested on: bronchiectasis patients with mucus hypersecretion; conditions: Yipin; erdosteine 300 mg BID + PCT up to 15 days; 40 subjects; cited from earlier work
chronic asthma subjects = conditions: randomized clinical study; cited from earlier work
CF patients = conditions: intravenous; cited from earlier work
[6] = tested on: patients with theophylline overdose; conditions: cited from earlier work
[7] = tested on: adults with CT scan confirmed bronchiectasis; conditions: nebulized, vs placebo, cited from earlier work
[8] = weighted by % total subjects (18%, 47%, 35%)

Compound: O=C(O)CSCC(=O)NC1CCSC1=O (stereo not shown) [Erdo, erdosteine]
- FEV1 change vs baseline [1]: 0.19 L
- FVC change vs baseline [1]: 0.31 L
- MEP change vs baseline [1]: 8.2 Kpa
- MIP change vs baseline [1]: 8.1 kPa
- PEF change vs baseline [1]: 0.3 L/s
- PaCO2 change vs baseline [1]: 0.3 mm Hg
- PaO2 change vs baseline [1]: 5.2 mm Hg
- FEV1 change vs baseline [2]: 0.2 L
- FVC change vs baseline [2]: 0.3 L
- MEP change vs baseline [2]: 8.4 Kpa
- MIP change vs baseline [2]: 8.9 kPa
- PEF change vs baseline [2]: 0.3 L/s
- PaCO2 change vs baseline [2]: 0.1 mm Hg
- PaO2 change vs baseline [2]: 5.1 mm Hg
- effect of erdosteine with PCT compared to PCT alone on respiratory functioning [3]: significantly enhances the effect of PCT alone
- FEV1 change vs baseline, Mean ([4]; mean of the three studies): 0.2 L
- FVC change vs baseline, Mean ([4]; mean of the three studies): 0.3 L
- MEP change vs baseline, Mean ([4]; mean of the three studies): 9.3 Kpa
- MIP change vs baseline, Mean ([4]; mean of the three studies): 9 kPa
- PEF change vs baseline, Mean ([4]; mean of the three studies): 0.3 L/s
- PaCO2 change vs baseline, Mean ([4]; mean of the three studies): 1.3 mm Hg
- PaO2 change vs baseline, Mean ([4]; mean of the three studies): 5.5 mm Hg
- FEV1 change vs baseline, Wtd Mean Diff [4, 8]: 0.26 L
- FVC change vs baseline, Wtd Mean Diff [4, 8]: 0.36 L
- MEP change vs baseline, Wtd Mean Diff [4, 8]: 9.69 Kpa
- MIP change vs baseline, Wtd Mean Diff [4, 8]: 9.09 kPa
- PEF change vs baseline, Wtd Mean Diff [4, 8]: 0.35 L/s
- PaCO2 change vs baseline, Wtd Mean Diff [4, 8]: 1.35 mm Hg
- PaO2 change vs baseline, Wtd Mean Diff [4, 8]: 5.70 mm Hg
- FEV1 change vs baseline [5]: 0.34 L
- FVC change vs baseline [5]: 0.43 L
- MEP change vs baseline [5]: 11.3 Kpa
- MIP change vs baseline [5]: 9.9 kPa
- PEF change vs baseline [5]: 0.4 L/s
- PaCO2 change vs baseline [5]: 2.6 mm Hg
- PaO2 change vs baseline [5]: 6.3 mm Hg

Compound: Cn1c(=O)c2c(ncn2CC2OCCO2)n(C)c1=O [doxofylline]
- effectiveness in treating chronic asthma compared to theophylline (chronic asthma subjects): as effective as theophylline
- subjects dropped out of the study due to side effects (chronic asthma subjects): 11%

Compound: Cn1c(=O)c2[nH]cnc2n(C)c1=O [theophylline]
- effect on FEV1 and FEF 0.75 (CF patients): positive results
- patients treated in an emergency setting for overdose who die [6]: Ten
- subjects dropped out of the study due to side effects (chronic asthma subjects): 31%

Compound: NC[C@H]1O[C@H](O[C@H]2[C@H](O)[C@@H](O[C@H]3O[C@H](CO)[C@@H](O)[C@H](N)[C@H]3O)[C@H](N)C[C@@H]2N)[C@H](N)C[C@@H]1O [tobramycin]
- effect on FEV1 ([7]; after four weeks of treatment): no effect
- eradication of P. aeruginosa ([7]; four weeks of treatment): significant effect
